# Tested on: mouse kidney
# Assay: RNA-seq of kidney gene expression over time in FA nephropathy progression (Table 1)
# Format: in vivo
# Description: Identification of Candidate Genes for Biomarkers of Kidney Fibrosis Through RNA-Seq. […] To select genes that are indicative of fibrosis candidates were considered from this later group that had robust upregulation (>5-fold with >100 read counts at peak) over time as fibrosis progresses. Another important criteria was the location of the protein product of the gene, either in extracellular matrix or transmembrane, to increase the chance of detecting it in the urine and use it as a biomarker(11).
# (§1) RNA samples (n=3 mice/time point) were sequenced at the Bioplymers Facility at the Harvard Medical School. Libraries were prepared from 10 ng total RNA per sample using the IntegenX Apollo 324 system and NuGEN SPIA reagents. Libraries were multiplexed in groups of three per lane of a flowcell and 50 cycle, paired-end sequencing was performed on an Illumina HiSeq2000 instrument. Illumina sequence quality was surveyed with FastQC (available on the world wide web at bioinformatics.babraham.ac.uk/projects/fastqc/) to ensure suitability of library generation and sequencing for further analysis. Adapters and lower quality bases were trimmed with Cutadapt (available on the world wide web at code.google.com/p/cutadapt/), using a Phred quality cutoff of 20, and reassessed with FastQC. Trimmed reads were aligned to the Ensembl NCBIM37 Mus musculus genome build with TopHat2. Aligned reads were summarized at the gene level against the Illumina iGenomes (available on the world wide web at tophat.cbcb.umd.edu/igenomes.html) NCBIM37 Mus musculus gene annotations using HTSeq (available on the world wide web at huber.embl.de/users/anders/HTSeq/doc/overview.html). […] The full dataset is available in the NCBI GEO database with the accession number GSE65267. Raw data is accessible on the world wide web at ncbi.nlm.nih.gov/geo/query/acc.cgi?acc=GSE65267.
# Mice were sacrificed at 1, 2, 3, 7 and 14 days following administration. […] All mice were sacrificed at 14 days.
# as §1, with “The quantity and quality of mRNA” for “RNA samples (n=3 mice/time point)”, “assayed on an Agilent 2200 TapeStation instrument and by SYBR qPCR assay.” for “sequenced at the Bioplymers Facility at the Harvard Medical School.”, “(https://code.google.com/p/cutadapt/),” for “(available on the world wide web at code.google.com/p/cutadapt/),”
smiles,measurement,setting,value
"Nc1nc2ncc(CNc3ccc(C(=O)N[C@@H](CCC(=O)O)C(=O)O)cc3)nc2c(=O)[nH]1 [FA, folic acid]",Sycn mean fold change from normal,Day 3,0.07 fold
same,Synpr mean fold change from normal,Day 3,0.01 fold
same,Sytl2 mean fold change from normal,Day 3,8.20 fold
same,Tagln2 mean fold change from normal,Day 3,4.86 fold
same,Tbx10 mean fold change from normal,Day 3,0.08 fold
same,Timd2 mean fold change from normal,Day 3,1.47 fold
same,Timp1 mean fold change from normal,Day 3,60.56 fold
same,Tlr2 mean fold change from normal,Day 3,34.62 fold
same,Tmem25 mean fold change from normal,Day 3,0.39 fold
same,Tmem26 mean fold change from normal,Day 3,0.16 fold
same,Tmem207 mean fold change from normal,Day 3,0.14 fold
same,Tmsb10 mean fold change from normal,Day 3,9.84 fold
same,Tnc mean fold change from normal,Day 3,9.00 fold
same,Tnfaip3 mean fold change from normal,Day 3,6.38 fold
same,Tnfrsf23 mean fold change from normal,Day 3,5.65 fold
same,Top2a mean fold change from normal,Day 3,10.49 fold
same,Tpx2 mean fold change from normal,Day 3,7.65 fold
same,Tril mean fold change from normal,Day 3,0.69 fold
same,Tsc22d1 mean fold change from normal,Day 3,4.34 fold
same,Ttc36 mean fold change from normal,Day 3,0.34 fold
same,Ttr mean fold change from normal,Day 3,0.15 fold
same,Tyrobp mean fold change from normal,Day 3,4.90 fold
same,Ugt3a1 mean fold change from normal,Day 3,0.17 fold
same,Uhrf1 mean fold change from normal,Day 3,12.11 fold
same,Upp2 mean fold change from normal,Day 3,0.21 fold
same,Vcam1 mean fold change from normal,Day 3,121.91 fold
same,Vill mean fold change from normal,Day 3,0.18 fold
same,Vmn1r18 mean fold change from normal,Day 3,0.14 fold
same,Vmn1r19 mean fold change from normal,Day 3,0.52 fold
same,Vmn1r20 mean fold change from normal,Day 3,0.31 fold
same,Vmn1r-ps11 mean fold change from normal,Day 3,0.73 fold
same,Vstm2a mean fold change from normal,Day 3,0.04 fold
same,Vtcn1 mean fold change from normal,Day 3,28.37 fold
same,Vwce mean fold change from normal,Day 3,0.42 fold
same,Wfdc15b mean fold change from normal,Day 3,0.06 fold
same,Ybx2 mean fold change from normal,Day 3,0.18 fold
same,7SK RNA mean fold change from normal,Day 7,0.08 fold
same,2310042D19Rik mean fold change from normal,Day 7,0.46 fold
same,4930533I22Rik mean fold change from normal,Day 7,0.25 fold
same,4933417A18Rik mean fold change from normal,Day 7,0.41 fold
same,8430408G22Rik mean fold change from normal,Day 7,1.23 fold
same,9030619P08Rik mean fold change from normal,Day 7,0.03 fold
same,Slc2a5 mean fold change from normal,Day 7,0.25 fold
same,Slc4a1 mean fold change from normal,Day 7,0.35 fold
same,Slc5a4a mean fold change from normal,Day 7,0.17 fold
same,Slc5a12 mean fold change from normal,Day 7,0.35 fold
same,Slc6a12 mean fold change from normal,Day 7,0.12 fold
same,Slc7a13 mean fold change from normal,Day 7,0.10 fold
same,Slc28a1 mean fold change from normal,Day 7,0.44 fold
same,Slc34a1 mean fold change from normal,Day 7,0.30 fold
same,Slc34a2 mean fold change from normal,Day 7,7.02 fold
same,Slc34a3 mean fold change from normal,Day 7,0.20 fold
same,Slc46a3 mean fold change from normal,Day 7,0.31 fold
same,Slco1a1 mean fold change from normal,Day 7,0.12 fold
same,Smoc2 mean fold change from normal,Day 7,4.22 fold
same,Smpdl3b mean fold change from normal,Day 7,38.83 fold
same,Snx31 mean fold change from normal,Day 7,0.07 fold
same,Socs1 mean fold change from normal,Day 7,34.95 fold
same,Sox4 mean fold change from normal,Day 7,11.09 fold
same,Sox9 mean fold change from normal,Day 7,30.72 fold
same,Spaca7 mean fold change from normal,Day 7,30.89 fold
same,Spink6 mean fold change from normal,Day 7,5.47 fold
same,Spp1 mean fold change from normal,Day 7,37.70 fold
same,Spred3 mean fold change from normal,Day 7,3.82 fold
same,Spsb1 mean fold change from normal,Day 7,8.93 fold
same,Spt1c3 mean fold change from normal,Day 7,1.25 fold
same,St8sia2 mean fold change from normal,Day 7,26.47 fold
same,Stil mean fold change from normal,Day 7,3.57 fold
same,Stk32a mean fold change from normal,Day 7,2.72 fold
same,Stra6 mean fold change from normal,Day 7,22.31 fold
same,Susd2 mean fold change from normal,Day 7,0.28 fold
same,Sycn mean fold change from normal,Day 7,0.07 fold
same,Synpr mean fold change from normal,Day 7,0.01 fold
same,Sytl2 mean fold change from normal,Day 7,11.81 fold
same,Tagln2 mean fold change from normal,Day 7,4.01 fold
same,Tbx10 mean fold change from normal,Day 7,0.03 fold
same,Timd2 mean fold change from normal,Day 7,0.68 fold
same,Timp1 mean fold change from normal,Day 7,67.32 fold
same,Tlr2 mean fold change from normal,Day 7,15.78 fold
same,Tmem25 mean fold change from normal,Day 7,0.53 fold
same,Tmem26 mean fold change from normal,Day 7,0.16 fold
same,Tmem207 mean fold change from normal,Day 7,0.35 fold
same,Tmsb10 mean fold change from normal,Day 7,9.28 fold
same,Tnc mean fold change from normal,Day 7,16.74 fold
same,Tnfaip3 mean fold change from normal,Day 7,8.79 fold
same,Tnfrsf23 mean fold change from normal,Day 7,2.21 fold
same,Top2a mean fold change from normal,Day 7,5.58 fold
same,Tpx2 mean fold change from normal,Day 7,2.93 fold
same,Tril mean fold change from normal,Day 7,2.07 fold
same,Tsc22d1 mean fold change from normal,Day 7,2.18 fold
same,Ttc36 mean fold change from normal,Day 7,0.34 fold
same,Ttr mean fold change from normal,Day 7,0.56 fold
same,Tyrobp mean fold change from normal,Day 7,16.29 fold
same,Ugt3a1 mean fold change from normal,Day 7,0.22 fold
same,Uhrf1 mean fold change from normal,Day 7,3.81 fold
same,Upp2 mean fold change from normal,Day 7,0.69 fold
same,Vcam1 mean fold change from normal,Day 7,63.51 fold
same,Vill mean fold change from normal,Day 7,0.20 fold
same,Vmn1r18 mean fold change from normal,Day 7,0.27 fold
same,Vmn1r19 mean fold change from normal,Day 7,0.73 fold
same,Vmn1r20 mean fold change from normal,Day 7,0.27 fold
same,Vmn1r-ps11 mean fold change from normal,Day 7,0.11 fold
same,Vstm2a mean fold change from normal,Day 7,0.20 fold
same,Vtcn1 mean fold change from normal,Day 7,15.70 fold
same,Vwce mean fold change from normal,Day 7,1.03 fold
same,Wfdc15b mean fold change from normal,Day 7,0.27 fold
same,Ybx2 mean fold change from normal,Day 7,0.72 fold
same,7SK RNA mean fold change from normal,Day 14,1.35 fold
same,2310042D19Rik mean fold change from normal,Day 14,0.95 fold
same,4930533I22Rik mean fold change from normal,Day 14,0.74 fold
same,4933417A18Rik mean fold change from normal,Day 14,0.67 fold
same,8430408G22Rik mean fold change from normal,Day 14,0.79 fold
same,9030619P08Rik mean fold change from normal,Day 14,0.25 fold
same,Slc2a5 mean fold change from normal,Day 14,0.99 fold
same,Slc4a1 mean fold change from normal,Day 14,0.92 fold
same,Slc5a4a mean fold change from normal,Day 14,1.06 fold
same,Slc5a12 mean fold change from normal,Day 14,0.58 fold
same,Slc6a12 mean fold change from normal,Day 14,0.77 fold
same,Slc7a13 mean fold change from normal,Day 14,0.48 fold
same,Slc28a1 mean fold change from normal,Day 14,0.55 fold
same,Slc34a1 mean fold change from normal,Day 14,0.58 fold
same,Slc34a2 mean fold change from normal,Day 14,4.10 fold
same,Slc34a3 mean fold change from normal,Day 14,0.33 fold
same,Slc46a3 mean fold change from normal,Day 14,0.53 fold
same,Slco1a1 mean fold change from normal,Day 14,0.36 fold
same,Smoc2 mean fold change from normal,Day 14,6.08 fold
same,Smpdl3b mean fold change from normal,Day 14,19.27 fold
same,Snx31 mean fold change from normal,Day 14,0.27 fold
same,Socs1 mean fold change from normal,Day 14,36.18 fold
same,Sox4 mean fold change from normal,Day 14,7.60 fold
same,Sox9 mean fold change from normal,Day 14,8.17 fold
same,Spaca7 mean fold change from normal,Day 14,11.81 fold
same,Spink6 mean fold change from normal,Day 14,1.77 fold
same,Spp1 mean fold change from normal,Day 14,10.75 fold
same,Spred3 mean fold change from normal,Day 14,5.60 fold
same,Spsb1 mean fold change from normal,Day 14,4.14 fold
same,Spt1c3 mean fold change from normal,Day 14,0.68 fold
same,St8sia2 mean fold change from normal,Day 14,2.02 fold
same,Stil mean fold change from normal,Day 14,0.95 fold
same,Stk32a mean fold change from normal,Day 14,1.64 fold
same,Stra6 mean fold change from normal,Day 14,14.59 fold
same,Susd2 mean fold change from normal,Day 14,0.51 fold
same,Sycn mean fold change from normal,Day 14,0.22 fold
same,Synpr mean fold change from normal,Day 14,0.18 fold
same,Sytl2 mean fold change from normal,Day 14,6.72 fold
same,Tagln2 mean fold change from normal,Day 14,2.37 fold
same,Tbx10 mean fold change from normal,Day 14,0.44 fold
same,Timd2 mean fold change from normal,Day 14,0.67 fold
same,Timp1 mean fold change from normal,Day 14,61.27 fold
same,Tlr2 mean fold change from normal,Day 14,7.34 fold
same,Tmem25 mean fold change from normal,Day 14,0.53 fold
same,Tmem26 mean fold change from normal,Day 14,0.49 fold
same,Tmem207 mean fold change from normal,Day 14,1.20 fold
same,Tmsb10 mean fold change from normal,Day 14,5.31 fold
same,Tnc mean fold change from normal,Day 14,18.78 fold
same,Tnfaip3 mean fold change from normal,Day 14,3.95 fold
same,Tnfrsf23 mean fold change from normal,Day 14,1.75 fold
same,Top2a mean fold change from normal,Day 14,3.30 fold
same,Tpx2 mean fold change from normal,Day 14,2.69 fold
same,Tril mean fold change from normal,Day 14,0.97 fold
same,Tsc22d1 mean fold change from normal,Day 14,2.00 fold
same,Ttc36 mean fold change from normal,Day 14,0.67 fold
same,Ttr mean fold change from normal,Day 14,0.78 fold
same,Tyrobp mean fold change from normal,Day 14,10.29 fold
same,Ugt3a1 mean fold change from normal,Day 14,0.46 fold
same,Uhrf1 mean fold change from normal,Day 14,3.48 fold
same,Upp2 mean fold change from normal,Day 14,1.34 fold
same,Vcam1 mean fold change from normal,Day 14,36.46 fold
same,Vill mean fold change from normal,Day 14,0.36 fold
same,Vmn1r18 mean fold change from normal,Day 14,0.87 fold
same,Vmn1r19 mean fold change from normal,Day 14,1.04 fold
same,Vmn1r20 mean fold change from normal,Day 14,0.79 fold
same,Vmn1r-ps11 mean fold change from normal,Day 14,0.51 fold
same,Vstm2a mean fold change from normal,Day 14,0.60 fold
same,Vtcn1 mean fold change from normal,Day 14,7.44 fold
same,Vwce mean fold change from normal,Day 14,0.85 fold
same,Wfdc15b mean fold change from normal,Day 14,0.90 fold
same,Ybx2 mean fold change from normal,Day 14,0.44 fold

# Reference: patent US10119168B2, “Methods for the treatment of kidney fibrosis” (priority 2014, dated 2018)
